Measured values taken from publication PMC8079033, “Design, synthesis, anticancer evaluation, and molecular modelling studies of novel tolmetin derivatives as potential VEGFR-2 inhibitors and apoptosis inducers” (Journal of Enzyme Inhibition and Medicinal Chemistry, 2021).

How the values were obtained:
MDA-MB-435 = test: NCI 60-cell line one-dose antiproliferative screen (SRB); format: cell-based; conditions: Homo sapiens, read-out: growth inhibition % (GI%)
Protocol: (§1) Anticancer activity screening of the newly synthesised compounds was measured in vitro utilising 60 different human tumour cell lines provided by US National Cancer Institute according to previously reported standard procedure[41–43] as follows: Cells are inoculated into 96-well microtiter plates in 100 ml. After cell inoculation, the microtiter plates are incubated at 37 °C, 5% CO2, 95% air, and 100% relative humidity for 24 h prior to addition of experimental compounds. After 24 h, two plates of each cell line are fixed in situ with TCA, to represent a measurement of the cell population for each cell line at the time of compound addition (Tz). Experimental compounds are solubilised in dimethyl sulfoxide at 400-fold the desired final maximum test concentration and stored frozen prior to use. At the time of compound addition, an aliquot of frozen concentrate is thawed and diluted to twice the desired final maximum test concentration with a complete medium containing […] gentamicin. Aliquots of […] of the compounds dilutions are added to the appropriate microtiter wells already containing 100 ml of medium, resulting in the required final compound concentration. Following compound addition, the plates are incubated for an additional 48 h at 37 °C, 5% CO2, 95% air, and 100% relative humidity. For adherent cells, the assay is terminated by the addition of cold trichloroacetic acid (TCA). Cells are fixed in situ by the gentle addition of 50 ml of cold 50% (w/v) TCA (final concentration, 10% TCA) and incubated for […] at 4 °C. The supernatant is discarded, and the plates are washed five times with tap water and air-dried. Sulforhodamine B (SRB) solution (100 ml) at 0.4% (w/v) in 1% acetic acid is added to each well, and plates are incubated for 10 min at room temperature. After staining, the unbound dye is removed by washing five times with 1% acetic acid and the plates are air-dried. The bound stain is subsequently solubilised with a 10 mM trizma base, and the absorbance is read on an automated plate reader at a wavelength of 515 nm. For suspension cells, the methodology is the same except that the assay is terminated by fixing settled cells at the bottom of the wells by gently adding 50 ml of 80% TCA (final concentration, 16% TCA). Using the absorbance measurements [time zero, (Tz), control growth, (C), and test growth in the presence of compound (Ti)], the percentage growth is calculated for each compound. The One-dose data are reported as a mean graph of the percent growth of treated cells. The reported number is growth relative to the no-compound control, and relative to the time zero number of cells. This allows the detection of both growth inhibition and lethality.
(§2) Fifteen newly synthesised compounds were tested for their in vitro antiproliferative activity by the National Cancer Institute (NCI), Maryland, USA[50], under the Developmental Therapeutic Program (DTP)[41]^,[43]^,[51]^,[52]. The tested compounds were evaluated at a concentration of 10 µM on a panel of 60 tumour cell lines representing leukaemia and non-small cell lung, colon, CNS, melanoma, ovarian, renal, prostate, and breast cancers. The antiproliferative activity was presented by the NCI as percent growth of the treated cells and is presented in Table 1 as growth inhibition percentage (GI%) achieved by the tested compounds.

MDA-MB-468 = test: as above; format: cell-based; conditions: Homo sapiens, read-out: growth inhibition % (GI%)
Protocol: as §1, §2

SF-268 = test: as above; format: cell-based; conditions: Homo sapiens, read-out: growth inhibition % (GI%)
Protocol: as §1, §2

OVCAR-8 = test: as above; format: cell-based; conditions: Homo sapiens, read-out: growth inhibition % (GI%)
Protocol: as §1, §2

OVCAR-5 = test: as above; format: cell-based; conditions: Homo sapiens, read-out: growth inhibition % (GI%)
Protocol: as §1, §2

SK-MEL-5 = test: as above; format: cell-based; conditions: Homo sapiens, read-out: growth inhibition % (GI%)
Protocol: as §1, §2

SF-539 = test: as above; format: cell-based; conditions: Homo sapiens, read-out: growth inhibition % (GI%)
Protocol: as §1, §2

RPMI-8226 = test: as above; format: cell-based; conditions: Homo sapiens, read-out: growth inhibition % (GI%)
Protocol: as §1, §2

NCI-H23 = test: as above; format: cell-based; conditions: Homo sapiens, read-out: growth inhibition % (GI%)
Protocol: as §1, §2

NCI-H226 = test: as above; format: cell-based; conditions: Homo sapiens, read-out: growth inhibition % (GI%)
Protocol: as §1, §2

HOP-92 = test: as above; format: cell-based; conditions: Homo sapiens, read-out: growth inhibition % (GI%)
Protocol: as §1, §2

EKVX = test: as above; format: cell-based; conditions: Homo sapiens, read-out: growth inhibition % (GI%)
Protocol: as §1, §2

U251 = test: as above; format: cell-based; conditions: Homo sapiens, U-251, read-out: growth inhibition % (GI%)
Protocol: as §1, §2

NCI/ADR-RES = test: as above; format: cell-based; conditions: Homo sapiens, read-out: growth inhibition % (GI%)
Protocol: as §1, §2

CAKI-1 = test: as above; format: cell-based; conditions: Homo sapiens, read-out: growth inhibition % (GI%)
Protocol: as §1, §2

SNB-75 = test: as above; format: cell-based; conditions: Homo sapiens, read-out: growth inhibition % (GI%)
Protocol: as §1, §2

NCI-H522 = test: as above; format: cell-based; conditions: Homo sapiens, read-out: growth inhibition % (GI%)
Protocol: as §1, §2

OVCAR-4 = test: as above; format: cell-based; conditions: Homo sapiens, read-out: growth inhibition % (GI%)
Protocol: as §1, §2

UO-31 = test: as above; format: cell-based; conditions: Homo sapiens, read-out: growth inhibition % (GI%)
Protocol: as §1, §2

PC-3 = test: as above; format: cell-based; conditions: Homo sapiens, read-out: growth inhibition % (GI%)
Protocol: as §1, §2

SR = test: as above; format: cell-based; conditions: Homo sapiens, read-out: growth inhibition % (GI%)
Protocol: as §1, §2

MDA-MB-231/ATCC = test: as above; format: cell-based; conditions: Homo sapiens, read-out: growth inhibition % (GI%)
Protocol: as §1, §2

NCI-H322M = test: as above; format: cell-based; conditions: Homo sapiens, read-out: growth inhibition % (GI%)
Protocol: as §1, §2

A498 = test: as above; format: cell-based; conditions: Homo sapiens, read-out: growth inhibition % (GI%)
Protocol: as §1, §2

IGROV1 = test: as above; format: cell-based; conditions: Homo sapiens, IGROV-1, read-out: growth inhibition % (GI%)
Protocol: as §1, §2

UACC-257 = test: as above; format: cell-based; conditions: Homo sapiens, read-out: growth inhibition % (GI%)
Protocol: as §1, §2

KM12 = test: as above; format: cell-based; conditions: Homo sapiens, read-out: growth inhibition % (GI%)
Protocol: as §1, §2

ACHN = test: as above; format: cell-based; conditions: Homo sapiens, read-out: growth inhibition % (GI%)
Protocol: as §1, §2

SN 12 C = test: as above; format: cell-based; conditions: Homo sapiens, SN12C, read-out: growth inhibition % (GI%)
Protocol: as §1, §2

LOX IMVI = test: as above; format: cell-based; conditions: Homo sapiens, read-out: growth inhibition % (GI%)
Protocol: as §1, §2

HCT-116 = test: as above; format: cell-based; conditions: Homo sapiens, read-out: growth inhibition % (GI%)
Protocol: as §1, §2

M14 = test: as above; format: cell-based; conditions: Homo sapiens, read-out: growth inhibition % (GI%)
Protocol: as §1, §2

K-562 = test: as above; format: cell-based; conditions: Homo sapiens, K562, read-out: growth inhibition % (GI%)
Protocol: as §1, §2

SNB-19 = test: as above; format: cell-based; conditions: Homo sapiens, read-out: growth inhibition % (GI%)
Protocol: as §1, §2

MALME-3M = test: as above; format: cell-based; conditions: Homo sapiens, read-out: growth inhibition % (GI%)
Protocol: as §1, §2

UACC-62 = test: as above; format: cell-based; conditions: Homo sapiens, read-out: growth inhibition % (GI%)
Protocol: as §1, §2

A549/ATCC = test: as above; format: cell-based; conditions: Homo sapiens, read-out: growth inhibition % (GI%)
Protocol: as §1, §2

MCF7 = test: as above; format: cell-based; conditions: Homo sapiens, read-out: growth inhibition % (GI%)
Protocol: as §1, §2

Cc1ccc(C(=O)c2ccc(CC(=O)NN=C3C(=O)Nc4ccc(Br)cc43)n2C)cc1 [Compound 6b, N′-(5-Bromo-2-oxoindolin-3-ylidene)-2–(1-methyl-5–(4-methylbenzoyl)-1H-pyrrol-2-yl)acetohydrazide]
melting point: 195 to 197 °C | inhibition at 10 µM (MDA-MB-435): < 10% | inhibition at 10 µM (MDA-MB-468): < 10% | inhibition at 10 µM (SF-268): < 10% | inhibition at 10 µM (OVCAR-8): < 10% | inhibition at 10 µM (OVCAR-5): < 10% | inhibition at 10 µM (SK-MEL-5): < 10% | inhibition at 10 µM (SF-539): < 10% | inhibition at 10 µM (RPMI-8226): < 10% | inhibition at 10 µM (NCI-H23): 13.7% | inhibition at 10 µM (NCI-H226): < 10% | inhibition at 10 µM (HOP-92): < 10% | inhibition at 10 µM (EKVX): < 10% | inhibition at 10 µM (U251): 34.4% | inhibition at 10 µM (NCI/ADR-RES): < 10% | inhibition at 10 µM (CAKI-1): 15.4% | inhibition at 10 µM (SNB-75): 36.3% | inhibition at 10 µM (NCI-H522): 13.2% | inhibition at 10 µM (OVCAR-4): 10.1% | inhibition at 10 µM (UO-31): 25% | inhibition at 10 µM (PC-3): < 10% | inhibition at 10 µM (SR): < 10% | inhibition at 10 µM (MDA-MB-231/ATCC): < 10% | inhibition at 10 µM (NCI-H322M): < 10% | inhibition at 10 µM (A498): 10.2% | inhibition at 10 µM (IGROV1): < 10% | inhibition at 10 µM (UACC-257): < 10% | inhibition at 10 µM (KM12): < 10% | inhibition at 10 µM (ACHN): < 10% | inhibition at 10 µM (SN 12 C): < 10% | inhibition at 10 µM (LOX IMVI): 10% | inhibition at 10 µM (HCT-116): < 10% | inhibition at 10 µM (M14): < 10% | inhibition at 10 µM (K-562): 10.6% | inhibition at 10 µM (SNB-19): < 10% | inhibition at 10 µM (MALME-3M): < 10% | inhibition at 10 µM (UACC-62): < 10% | inhibition at 10 µM (A549/ATCC): < 10% | inhibition at 10 µM (MCF7): < 10%
